Measured values reported in publication PMC9856672, “SGC-CAMKK2-1: A Chemical Probe for CAMKK2” (Cells, 2023).
“Also recorded” adds a separate entry of the source.

How the values were obtained:
[1] = test system: panel of more than 400 wild-type human kinases; experiment: DiscoverX KINOMEscan broad kinome profiling (panel of more than 400 wild-type human kinases), selectivity score S10; assay type: binding; conditions: KINOMEscan at 1 μM; number of wild type kinases with % control ≤10 / number tested
Experimental: Compounds were screened at Eurofins DiscoverX (Freemont, CA) at a single concentration of 1 μM using binding assays as described previously. Briefly, extracts containing DNA-tagged kinases are incubated with immobilized kinase inhibitors and the test compound (at 1 μM). Test compounds that displace the immobilized broad-spectrum inhibitors are detected by quantitative PCR. The results are expressed as the percentage of kinase bound to the bead compared to DMSO control (%control). […] The formula to calculate S10 depicted in Equation (1). (1) S10(1 μM)=number of wild type kinase with % control ≤10/number of wild type kinase tested
A series of furo [2,3-b]pyridines were generated with modifications off the core at the 3- and 5-positions. They were profiled in the CAMKK2 enzyme assay we have described and utilized previously. Briefly, the enzyme assay measures the ability of the compound to inhibit the transfer of a radiolabeled phosphate from ATP to a CAMKK2-specific peptide. […] 5 was then profiled in the DiscoverX KINOMEscan™ assay panel to provide a view of the overall kinome-wide selectivity (Supplemental S2). This assay platform evaluates compound affinity for a panel of more than 400 wild-type human kinases. The S10 (1 µM), a calculated score that is reflective of broad kinome selectivity, is 0.002 for the probe molecule.

[2] = test system: p-AMPK(Thr172) in C4-2 cells; experiment: Western blot of p-AMPK(Thr172) in C4-2 prostate cancer cells; assay type: cell-based; conditions: 24 h treatment; for IC50: C4-2, 24 h, three individual experiments, read-out: IC50 for decrease of p-AMPK(Thr172) normalized to total AMPK
Experimental: C4-2 cells were plated in 6-well plates in IMEM medium containing 0.5% FBS. After 72 h, the cells were then treated with the compounds for 24 h before the media was aspirated and cells were washed twice in ice-cold PBS. Cells were lysed using RIPA buffer containing phosphatase and protease inhibitor cocktail while rotating for 30 min at 4 °C. In each lane, 30 μg/well of protein lysate was loaded into a 10% SDS-PAGE gel and run for 1 h and 30 min. Gels were then transferred overnight in a TRIS-glycine/methanol transfer buffer onto a PVDF membrane at 4 °C. Membranes were blocked, incubated with primary overnight at 4 °C, washed, incubated with secondary at room temperature for 1 h, washed, and then developed on an Azure Biosystems C-600 imager. Densitometry was performed using ImageJ. Total-AMPK was normalized to GAPDH and then p-AMPK was normalized to normalized total-AMPK. Normalized p-AMPK was used to calculate IC50 in GraphPad Prism 9.5.0. Primary antibodies used were from Cell Signaling (Danvers, MA, USA; Phospho-AMPKα (Thr172) (40H9) Rabbit mAb: Cat#: 2535; AMPKα (D5A2) Rabbit mAb Cat#: 5831), BD Bioscience (Franklin Lakes, NJ, USA; CAMKK2 mouse mAb Cat# 610544), and Sigma (St. Louis, MO, USA; GAPDH rabbit pAb: Cat# G9545). Secondary antibody (Goat Anti-Rabbit IgG (H + L)-HRP Conjugate; Cat#:1706515) was from Bio-Rad Laboratories (Hercules, CA, USA).
In this experiment, IC50 was calculated via quantifying changes in p-AMPK(Thr172) normalized to total AMPK levels.

[3] = test system: p-AMPK(Thr172) in MDA-MB-231 cells; experiment: Immunoblot of p-AMPK(Thr172) in MDA-MB-231 breast cancer cells; assay type: cell-based; conditions: 24 h
Experimental: The cells were then washed three times with 2 mL of ice-cold PBS and lysed with 0.15 mL of phospho-RIPA lysis buffer (Tris-Cl pH 7.5, 50 mM; NaCl, 150 mM; NP-40, 1%; sodium deoxycholate, 0.5%; SDS, 0.05%; EDTA, 5 mM; sodium fluoride, 50 mM; sodium pyrophosphate, 15 mM; ß-glycerophosphate, 10 mM; sodium orthovanadate, 1 mM) with protease inhibitor cocktail (Millipore-Sigma, P-8340). Equal amounts of protein per sample/lane were denatured and resolved by SDS-PAGE. Proteins were transferred to Odyssey Nitrocellulose Membranes (LI-COR Biosciences, cat no: 926-31092), and quantitative immunoblotting was performed using the Odyssey infrared immunoblotting detection system (LI-COR Biosciences, Lincoln, NE, USA). Images were captured using the LI-COR Odyssey Classic scanner and processed using LI-COR Image Studio software, version 4.0. Quantification of the bands was done using Image Studio software tools whereby each individual immunoblot band was highlighted to obtain the signal intensity. The signal intensity of the pAMPK band was then divided by that of total AMPK and the data were normalized to the vehicle-only controls for each experiment. Primary antibodies used were anti-phospho AMPKα (Thr172) (Cell Signaling, cat no: 2535, dilution 1:1000); anti-AMPKα (Cell Signaling, cat.no: 2532, dil 1:500), and anti β-actin (Cat no: 3700, Cell signaling, dil 1:10,000). […]

CAMKK2 = CAMKK2 (Homo sapiens, UniProt Q96RR4); experiment: CAMKK2 enzyme assay (radiolabeled phosphate transfer from [γ-32P]-ATP to CaMKKtide); assay type: biochemical; set-up: purified recombinant CAMKK2 (100 pM) was incubated in assay buffer; conditions: 200 μM ATP, 100 pM CAMKK2
Experimental: CAMKK2 activity was determined by measuring the transfer of radiolabeled phosphate from [γ-^32P]-ATP to a synthetic peptide substrate (CaMKKtide) as previously described. Briefly, purified recombinant CAMKK2 (100 pM) was incubated in assay buffer (50 mM HEPES [pH 7.4], 1 mM DTT, 0.02% [v/v] Brij-35) containing 200 μM CaMKKtide (Genscript), 100 μM CaCl2, 1 μM CaM (Sigma-Aldrich, Castle Hill, NSW, Australia), 200 μM [γ-^32P]-ATP (Perkin Elmer, Boston, MA, USA), 5 mM MgCl2 (Sigma-Aldrich, Castle Hill, NSW, Australia), and various concentrations of inhibitors (0–1 μM) in a standard 30 μL assay for 10 min at 30 °C. Reactions were terminated by spotting 15 μL onto P81 phosphocellulose paper (GE Lifesciences, Paramatta, NSW, Australia) and washing extensively in 1% phosphoric acid (Sigma-Aldrich, Castle Hill, NSW, Australia). Radioactivity was quantified by liquid scintillation counting.
A series of furo [2,3-b]pyridines were generated with modifications off the core at the 3- and 5-positions. They were profiled in the CAMKK2 enzyme assay we have described and utilized previously. Briefly, the enzyme assay measures the ability of the compound to inhibit the transfer of a radiolabeled phosphate from ATP to a CAMKK2-specific peptide. […] The S10 (1 µM), a calculated score that is reflective of broad kinome selectivity, is 0.002 for the probe molecule.

MYLK2 = biological target: T1, MYLK2 (Homo sapiens, UniProt Q9H1R3); experiment: KINOMEscan at 1 μM, MYLK2; assay type: binding; conditions: 1000 nM, read-out: Percent Control
T1 construct: purchased Eurofins DiscoverX KINOMEscan
T1 sequence (Q9H1R3 whole entry): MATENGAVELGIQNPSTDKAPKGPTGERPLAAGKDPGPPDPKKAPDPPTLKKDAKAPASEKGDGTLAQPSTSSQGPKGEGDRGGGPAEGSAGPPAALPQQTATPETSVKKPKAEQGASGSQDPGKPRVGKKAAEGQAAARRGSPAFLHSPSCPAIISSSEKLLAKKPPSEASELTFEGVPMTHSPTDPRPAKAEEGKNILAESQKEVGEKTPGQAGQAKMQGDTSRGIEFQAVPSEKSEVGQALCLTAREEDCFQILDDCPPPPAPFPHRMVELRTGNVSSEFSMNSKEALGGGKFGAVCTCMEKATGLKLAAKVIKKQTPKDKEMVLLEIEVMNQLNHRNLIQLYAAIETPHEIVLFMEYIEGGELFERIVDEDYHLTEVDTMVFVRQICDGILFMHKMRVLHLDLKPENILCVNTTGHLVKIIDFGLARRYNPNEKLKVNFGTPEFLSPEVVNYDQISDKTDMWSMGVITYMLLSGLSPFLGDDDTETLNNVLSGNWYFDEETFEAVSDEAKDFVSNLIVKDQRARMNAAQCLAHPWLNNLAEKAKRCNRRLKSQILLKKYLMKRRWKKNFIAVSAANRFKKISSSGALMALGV
Source text: (§1) Supplement cells-12-00287-s001.zip/File S2. KinomeScan data for the CAMKK2 probe and negative control.xlsx, sheet "SGC-CAMKK2-1N" | column: Percent Control

[4] = biological target: T2, ABL1(F317L)-phosphorylated (Homo sapiens, UniProt P00519, F317L); experiment: KINOMEscan at 1 μM, ABL1(F317L)-phosphorylated; assay type: binding; conditions: 1000 nM, read-out: Percent Control
T2 construct: purchased Eurofins DiscoverX KINOMEscan
T2 sequence (P00519 whole entry F317L): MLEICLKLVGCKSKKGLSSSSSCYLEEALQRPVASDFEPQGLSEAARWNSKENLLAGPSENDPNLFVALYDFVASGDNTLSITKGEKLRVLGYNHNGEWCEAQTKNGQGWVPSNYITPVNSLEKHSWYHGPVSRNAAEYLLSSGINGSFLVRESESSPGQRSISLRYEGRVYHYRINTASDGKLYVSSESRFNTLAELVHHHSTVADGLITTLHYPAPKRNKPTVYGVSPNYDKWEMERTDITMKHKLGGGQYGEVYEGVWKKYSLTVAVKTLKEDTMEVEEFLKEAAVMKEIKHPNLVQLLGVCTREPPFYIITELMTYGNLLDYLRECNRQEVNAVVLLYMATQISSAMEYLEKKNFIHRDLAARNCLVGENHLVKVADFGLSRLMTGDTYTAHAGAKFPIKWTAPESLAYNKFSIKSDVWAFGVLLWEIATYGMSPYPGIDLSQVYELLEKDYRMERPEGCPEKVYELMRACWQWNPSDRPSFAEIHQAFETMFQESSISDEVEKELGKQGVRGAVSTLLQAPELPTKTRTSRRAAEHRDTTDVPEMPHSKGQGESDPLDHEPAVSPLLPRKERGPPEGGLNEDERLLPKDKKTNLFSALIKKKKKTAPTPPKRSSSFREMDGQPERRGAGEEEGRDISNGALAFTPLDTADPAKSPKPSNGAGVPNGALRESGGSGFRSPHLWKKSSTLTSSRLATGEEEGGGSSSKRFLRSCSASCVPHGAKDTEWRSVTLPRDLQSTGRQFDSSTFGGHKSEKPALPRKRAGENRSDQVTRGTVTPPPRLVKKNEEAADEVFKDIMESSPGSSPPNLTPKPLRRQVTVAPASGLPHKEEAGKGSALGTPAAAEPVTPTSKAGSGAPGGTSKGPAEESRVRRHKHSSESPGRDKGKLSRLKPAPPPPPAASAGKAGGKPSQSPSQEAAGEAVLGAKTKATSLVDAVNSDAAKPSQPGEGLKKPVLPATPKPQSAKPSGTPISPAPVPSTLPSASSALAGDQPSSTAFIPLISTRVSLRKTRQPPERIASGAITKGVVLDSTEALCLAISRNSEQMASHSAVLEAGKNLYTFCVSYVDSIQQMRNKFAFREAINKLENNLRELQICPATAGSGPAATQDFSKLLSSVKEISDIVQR
Source text: as §1

Structure (SMILES)	S10 (1 μM) [1]	IC50 [2]	blocking of AMPK phosphorylation (in words) ([3]; SGC-CAMKK2-1)	IC50 (CAMKK2)	activity on p-AMPK(Thr172) levels (in words) [2]	blocking of AMPK phosphorylation (in words) ([3]; negative control at 10 μM)	IC50 (CAMKK2; n = 1)	remaining binding at 1 µM (MYLK2)	remaining binding at 1 µM [4]
Cc1cccc(-c2cnc3occ(-c4ccc(C(=O)O)c(C5CCCC5)c4)c3c2)c1 [Compound 5]	0.002	1600 nM	more effective than STO-609; also recorded: higher efficacy than STO-609	0.03 µM					
O=C(O)c1ccc(-c2coc3ncc(-c4ccccc4)cc23)cc1Cl [Compound 7]	0.005	≥ 10000 nM			did not have any measurable activity	no effect	27 µM		
O=C(O)c1ccc(-c2coc3ncc(-c4ccccc4)cc23)cc1Cl [SGC-CAMKK2-1N (UNC-YL-83)]								82%	79%
